Laboratory results: paper PMC11375813 (ACS Omega, 2024)
“And” between values parts separate entries of the source, which are not always exact repeats. Identical values can stand only once. Like-named read-outs stand apart in the source and are kept apart here.

Tests used:
BChE = tested on: BChE; set-up: method as in PMID 17196712, PMID 16868793, PMID 20205672, PMID 19199870; settings: at therapeutic concentrations; cited from earlier work
human plasma BChE [1] = target: T1, human plasma BChE (Homo sapiens, UniProt P06276); test: biochemical; type: biochemical; settings: single concentration 100 μM
T1 construct: 25 μL/well of a 1:450 diluted solution of pooled human plasma; from tissue; host or cells: pooled human plasma, diluted 1:450, BChE not purified
T1 sequence (P06276 29-602): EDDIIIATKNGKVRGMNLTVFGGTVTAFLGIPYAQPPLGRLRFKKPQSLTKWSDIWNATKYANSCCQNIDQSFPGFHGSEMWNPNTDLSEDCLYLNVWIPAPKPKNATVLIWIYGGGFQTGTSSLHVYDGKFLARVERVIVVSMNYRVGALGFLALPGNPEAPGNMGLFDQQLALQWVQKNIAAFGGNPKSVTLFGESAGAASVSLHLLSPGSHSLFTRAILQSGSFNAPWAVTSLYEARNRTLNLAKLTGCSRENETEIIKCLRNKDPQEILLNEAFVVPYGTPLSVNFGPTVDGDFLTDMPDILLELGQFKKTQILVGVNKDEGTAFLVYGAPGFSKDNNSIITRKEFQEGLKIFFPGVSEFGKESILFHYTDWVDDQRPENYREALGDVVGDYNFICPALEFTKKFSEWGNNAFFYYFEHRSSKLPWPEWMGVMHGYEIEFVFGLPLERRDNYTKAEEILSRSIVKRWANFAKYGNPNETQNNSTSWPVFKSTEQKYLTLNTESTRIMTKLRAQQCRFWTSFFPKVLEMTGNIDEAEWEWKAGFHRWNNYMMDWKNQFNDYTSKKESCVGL
Protocol: (§1) All of the drugs were tested at a final concentration of 100 μM.
(§2) The screening of the in silico hits toward the BChE and AChE enzymatic activity was done by an adapted high-throughput assay version of Ellman′s colorimetric assay.[59],[60] The reagents, butyrylthiocholine iodide (BTC), acetylthiocholine iodide (ATC), and 5,5′-dithiobis(2-nitrobenzoic acid) (DTNB), were purchased from Sigma-Aldrich (St. Louis, MO). The modified assay details are as previously described.[6],[44] The main modification concerned the high-throughput adaptation of the assay for use in 384-well plates. Briefly, 25 μL/well of a 1:450 diluted solution of pooled human plasma and 1:768 diluted (3.5 ng/mL final concentration) purified recombinant human AChE protein (Sigma, Cat no. C1682) was used for measurement of the BChE and AChE activity, respectively. These enzymes’ concentrations were used since they are representative of the activity of these enzymes in the human cerebrospinal fluid (CSF).
(§3) To the control wells, the vehicle solution was added to get the reference enzyme activity (100%). (2) Then, 25 μL of a working solution of BChE or AChE was added to all wells. The plate was then incubated for 10–30 min at room temperature. (3) The reaction was then started by adding 25 μL of a cocktail mix prepared in Na/K phosphate buffer to all wells, containing DTNB (final concentration 0.4 mM) and BTC (final concentration 1 mM) or ATC (final concentration 0.5 mM). The changes in the absorbance were monitored at 412 nm wavelength for 15–20 min at 1 min intervals, using a microplate spectrophotometer reader (Infinite M1000, Tecan). The rate of the enzyme activity was determined from the slope of the linear part of the kinetic reaction curves. In all steps, the working solution concentrations were 3 times of the final concentrations of each component in the final volume of 75 μL in each well. The final screening concentration of the compounds was 100 μM. […]

human AChE [2] = target: T2, human AChE (Homo sapiens, UniProt P22303); test: In vitro single-concentration screening, AChE activity (adapted Ellman assay); type: biochemical; settings: read-out: inhibition of AChE activity
T2 construct: purchased Sigma C1682
T2 sequence (P22303 32-614): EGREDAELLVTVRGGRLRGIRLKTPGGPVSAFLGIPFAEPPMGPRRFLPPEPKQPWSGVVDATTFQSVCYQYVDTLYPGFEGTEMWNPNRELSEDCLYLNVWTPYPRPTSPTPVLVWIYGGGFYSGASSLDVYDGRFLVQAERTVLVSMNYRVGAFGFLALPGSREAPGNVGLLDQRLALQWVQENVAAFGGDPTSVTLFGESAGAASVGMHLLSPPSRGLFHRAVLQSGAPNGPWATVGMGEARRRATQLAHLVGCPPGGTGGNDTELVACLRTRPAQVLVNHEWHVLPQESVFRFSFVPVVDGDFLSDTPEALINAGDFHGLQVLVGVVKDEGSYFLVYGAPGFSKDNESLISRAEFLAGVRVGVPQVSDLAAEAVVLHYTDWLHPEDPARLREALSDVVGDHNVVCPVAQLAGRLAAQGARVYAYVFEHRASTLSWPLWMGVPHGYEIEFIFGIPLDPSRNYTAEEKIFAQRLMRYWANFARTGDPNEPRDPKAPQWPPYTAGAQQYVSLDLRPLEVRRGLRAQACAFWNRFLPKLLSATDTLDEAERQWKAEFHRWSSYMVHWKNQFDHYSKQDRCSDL
Protocol: as §1, §2, §3

human recombinant ChAT = test: In vitro single-concentration screening against choline acetyltransferase; type: biochemical; settings: single concentration 100 μM
Protocol: as §1

human plasma BChE [3] = target: T1, human plasma BChE; test: biochemical; settings: for Ki: inhibition constant (Ki) against human BChE
Text: as §2
(§4) For BChE, the final BTC concentrations in the wells ranged from 5 mM to […], which were prepared as a 2-fold serial dilution. For AChE, the final ATC concentrations in the wells ranged from 0.5 mM to […], prepared as a 2-fold serial dilution series.
(§5) In all enzyme inhibition kinetic assays, the concentrations of AChE and BChE were chosen so that the enzyme activities were representative of the activity of these enzymes in the human CSF, which is about 20 and 10 nmol/min/mL CSF for AChE and BChE, respectively.[49]
(§6) For the enzyme inhibition kinetic analyses, the order of steps was as follows: (1) 25 μL/well of the compound or the vehicle control was added in quadruplicates, with respect to each compound concentration, in a 384-well plate. (2) Then, 25 μL of each substrate concentration was added to the wells in quadruples. (3) The reaction was then started by adding 25 μL of a master mix to all wells, containing the enzyme working solution and DTNB. The final concentration of the enzyme and DTNB as well as the buffer composition was the same as mentioned above for the screening assay. Then, the plate was immediately placed in the microplate spectrophotometer reader (Infinite M1000, Tecan) and the changes in the absorbance were continuously monitored at 2 min intervals for 15–20 min at 412 nm wavelength. The rate of the enzyme activity was extracted as the slope of the initial linear part of the kinetic reaction curves.
The data were then transferred and processed using GraphPad Prism 9 analysis software.[15] The half-maximal inhibitory concentration (IC50) values were calculated by plotting the percentage enzyme activity versus the log concentrations of the compound. The inhibitory constant (Ki) values were determined from the enzyme inhibition kinetic analyses using the nonlinear regression function in the software. A statistical comparison of the ligand’s mode of activity was also done using GraphPad software between the competitive equation versus the mixed-competitive, noncompetitive, and uncompetitive equations.[61] A competitive mode of action means that the inhibitor reversibly binds to the substrate′s binding site. Thus, the inhibition of the enzyme is modifiable by a high concentration of the substrate via displacement. […] When the behavior of a ligand is not fully uniform, and the mixed-competitive fitting equation is statistically the best fitting option, the ligand is called a mixed-competitive one. This is determined through a general equation that includes the other three modes of actions. Through this equation, the software provides an additional parameter, called α, which determines the mechanism of action of the inhibitor. For instance, when α is equal to one, the inhibitor′s affinity for the free enzyme and the enzyme–substrate complex is equal, i.e., the inhibitor behaves mainly noncompetitively. […] When α is very large, the inhibitor behaves mainly as a competitive ligand. A very small α (but not <0) is indicative of an uncompetitive mode of action.[61]

human AChE [4] = target: T2, human AChE; test: IC50 and enzyme inhibition kinetic analyses on AChE; type: biochemical
Text: as §2, §4, §5, §6
The data were then transferred and processed using GraphPad Prism 9 analysis software.[15] The half-maximal inhibitory concentration (IC50) values were calculated by plotting the percentage enzyme activity versus the log concentrations of the compound. The inhibitory constant (Ki) values were determined from the enzyme inhibition kinetic analyses using the nonlinear regression function in the software. A statistical comparison of the ligand’s mode of activity was also done using GraphPad software between the competitive equation versus the mixed-competitive, noncompetitive, and uncompetitive equations.[61] A competitive mode of action means that the inhibitor reversibly binds to the substrate′s binding site. Thus, the inhibition of the enzyme is modifiable by a high concentration of the substrate via displacement. […] In the case of an uncompetitive mode of activity, the inhibitor has an affinity to the enzyme–substrate complex, but not the free enzyme. When the behavior of a ligand is not fully uniform, and the mixed-competitive fitting equation is statistically the best fitting option, the ligand is called a mixed-competitive one. This is determined through a general equation that includes the other three modes of actions. Through this equation, the software provides an additional parameter, called α, which determines the mechanism of action of the inhibitor. For instance, when α is equal to one, the inhibitor′s affinity for the free enzyme and the enzyme–substrate complex is equal, i.e., the inhibitor behaves mainly noncompetitively. […] When α is very large, the inhibitor behaves mainly as a competitive ligand. […]

[5] = Plasma / in vivo drug concentrations in humans (literature pharmacokinetics); settings: using a molecular weight of 325.39
[6] = target: norepinephrine uptake carrier; settings: read-out: Ki, norepinephrine uptake carrier; radioligand binding; cited from earlier work
[7] = tested on: muscarinic, histaminergic, α1-adrenergic, serotonergic, dopaminergic, and opioid receptors; settings: radioligand binding; cited from earlier work
[8] = cited from earlier work
human BChE = settings: cited from earlier work
[9] = cited from earlier work; remark: listed apart in the source
[10] = high substrate range, up to 5 mM
[11] = micromolar substrate range (up to 0.5 mM)
[12] = human, multiple doses of 30 mg twice daily

COc1cc2c(cc1OC)C(=O)C(CC1CCN(Cc3ccccc3)CC1)C2 (stereo not drawn) [donepezil]
inhibitory effect on BChE (BChE): completely devoid of any inhibitory effect

COc1ccc2c3c1O[C@H]1C[C@@H](O)C=C[C@@]31CCN(C)C2 [galantamine]
inhibitory effect on BChE (BChE): completely devoid of any inhibitory effect

CN(C)CCC[C@@]1(c2ccc(F)cc2)OCc2cc(C#N)ccc21 [escitalopram]
inhibition at 100 µM (human plasma BChE [1]): ~10%
inhibition at 100 µM (human AChE [2]): ~60%
effect on the activity of human ChAT (human recombinant ChAT): neither duloxetine nor citalopram/escitalopram affected the activity
mode of inhibition of BChE (human plasma BChE [3]; [10]): mixed-competitive
Ki (human plasma BChE [3]; [10]): 203 µM
Ki (human AChE [4]): 32.8 µM
AChE potency ratio Ki Cit / Ki Escit (human AChE [4]; 59/33): 1.8
mode of inhibition of AChE (human AChE [4]; enzyme inhibition kinetics): mixed-competitive
molar concentration (maximum, from ng/mL) [5]: at most 0.86 μM

CNC(=O)Oc1ccc2c(c1)[C@]1(C)CCN(C)[C@@H]1N2C [physostigmine]
mode of inhibition of BChE (human plasma BChE [3]; [10]): Competitive inhibitor

CNCC[C@H](Oc1cccc2ccccc12)c1cccs1 [duloxetine]
inhibition of plasma BChE activity (human plasma BChE [1]): fully inhibited
inhibition at 100 µM (human AChE [2]): ~35%
effect on the activity of human ChAT (human recombinant ChAT): neither duloxetine nor citalopram/escitalopram affected the activity
IC50 (human plasma BChE [3]): 9.7 µM
times as potent as physostigmine in inhibiting BChE (human plasma BChE [3]; Ki 210 nM vs […] nM): 4 times
mode of inhibition of BChE (human plasma BChE [3]; [10]): competitive
Ki (human plasma BChE [3]; [10]): ~0.351 µM and 0.35 µM
Ki (human plasma BChE [3]; [11]): 0.21 µM
mode of inhibition of BChE (human plasma BChE [3]; [11]): competitive
mode of inhibition of AChE (human AChE [4]; enzyme inhibition kinetics): mixed-competitive
Ki (human AChE [4]; inhibition constant (Ki) against human AChE, nonlinear regression, enzyme inhibition kinetics): 65.5 µM and ~56.5 µM
Ki [6]: 0.0021 µM
affinity for muscarinic, histaminergic, α1-adrenergic, serotonergic, dopaminergic, and opioid receptors [7]: lacks the pharmacologically relevant affinity
maximum steady-state plasma concentration [8, 12]: 142 nM
minimum steady-state plasma concentration [8, 12]: 84 nM
normal in vivo concentration range in human patients ([8]; normal dosages): 100 to 400 nM
Cmax ([8]; read-out: plasma Cmax, human, single dose of 30–90 mg): 0.07 to 0.18 µM
inhibition of human BChE (human BChE; 10 μM): over 70%
IC50 (human BChE; read-out: IC50 against human BChE, substrate and its concentration not reported): 1.2 µM
effect on cognition in the elderly ([9]; 8-week double-blind placebo-controlled trial): improved cognition
cognitive effect in patients with major depressive disorders ([9]; 12-week study): significant cognitive improvements across several domains
risk of developing dementia compared to citalopram-treated patients ([9]; pharmacoepidemiologic study, patients with depression): significantly lower risk of developing dementia

CN(C)CCCC1(c2ccc(F)cc2)OCc2cc(C#N)ccc21 (stereo not drawn) [citalopram]
inhibition at 100 µM (human plasma BChE [1]): ~55%
inhibition at 100 µM (human AChE [2]): ~60%
effect on the activity of human ChAT (human recombinant ChAT): neither duloxetine nor citalopram/escitalopram affected the activity
BChE potency ratio Ki Escit / Ki Cit (human plasma BChE [3]; 203/42): 4.8
mode of inhibition of BChE (human plasma BChE [3]; [10]): mixed-competitive
Ki (human plasma BChE [3]; [10]): 42 µM
Ki (human AChE [4]): 58.8 µM
mode of inhibition of AChE (human AChE [4]; enzyme inhibition kinetics): noncompetitive
molar concentration (maximum, from ng/mL) [5]: at most 0.86 μM

CCN(CC)C(C)CN1c2ccccc2Sc2ccccc21 (stereo not drawn) [ethopropazine]
mode of inhibition of BChE (human plasma BChE [3]; [10]): mixed-competitive
Ki (human plasma BChE [3]; [10]): 0.15 µM
Ki (human plasma BChE [3]; low substrate concentrations (up to 0.5 mM)): 0.154 µM
Ki (human plasma BChE [3]; [11]): ~0.155 µM
mode of inhibition of BChE (human plasma BChE [3]; [11]): Mixed-competitive inhibitor
